What is called EC50 is the concentration that produces a half-maximal response.

Drawing on PubChem BioAssay AID1062 (NMMLSC, 2008), this text covers inhibition of disassembly and EC50 for 21 molecules.

Activity calls are given as the source filed them.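 How the source made its calls: active means compounds blocking proteasome disassembly by more than 40% at the highest tested dose; inconclusive means compounds bright enough on their own to skew readings; inactive means the rest.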 Where a SMILES comes first, the peptide text is derived from it. The star is where a group is joined. Cbz = O=C(OCc1ccccc1)*

The target of the first assay is 26S proteasome (lid disassembly, GFP-tagged; likely yeast). In words: inhibitors of ATP-dependent 26S proteasome disassembly, dose response, biochemical, bead-based flow cytometry, GFP-tagged lid (AID 1062). To be noted: GFP-proteasome beads, at 100 µM (top of the series).
With `O=C1CC(c2ccccc2)Cc2nc(N3CCc4ccccc43)ncc21` (stereo unspecified), the inhibition of disassembly entry was “inactive”. On the same count and under the same terms, with `CC(C)C[C@@H](C=O)NC(=O)[C@H](CC(C)C)NC(=O)[C@H](CC(C)C)NC(=O)OCc1ccccc1` (Cbz-Leu-Leu-Leu-aldehyde) the entry was “inactive”; with `Cc1noc(/C=C/c2ccco2)c1S(=O)(=O)N1CCC(C(=O)N2CCc3ccccc3C2)CC1`, “inactive”. Still for that read-out and setting: with `O=c1cc(Nc2ccc3c(c2)OCCO3)[nH]c(=O)n1C1CCCCC1` the entry was “inactive”. Same read-out and setting: to `COC(=O)C1=C(C)N=c2s/c(=C/c3cccs3)c(=O)n2C1c1cccs1` (stereo unspecified) belongs “inactive”.

Turning to `Cc1ccc2nc(NC(=O)C3CCCN(S(=O)(=O)c4cccc5nsnc45)C3)sc2c1` (stereo unspecified), the inhibition of disassembly entry was “inactive”.

In the case of `CCN(CC)c1ccc(-c2c(C#N)c(N)nc(OC)c2C#N)cc1`, the inhibition of disassembly result was “inactive”. For the molecule `Cc1ccc(C)c(N2CCN(S(=O)(=O)c3c(C)noc3/C=C/N(C)C)CC2)c1`, the inhibition of disassembly entry was “inactive”. On to `COC(=O)c1ccc2c(c1)N(Cc1nc(-c3cccc(Cl)c3)oc1C)C(=O)C1CCCN21` (stereo unspecified), for which the inhibition of disassembly result was “inactive”. On to `N#Cc1cc2c(nc1SCC(=O)Nc1sc3c(c1C#N)CCC3)CCCCC2`, for which the inhibition of disassembly result is “inactive”.

Take `CCOc1ccc(/C=c2\sc3nc(-c4ccco4)nn3c2=O)cc1OCC`: the inhibition of disassembly entry was “inactive”. The same measure, in the same setting: with `COC(=O)[C@H]1[C@H]2C[C@@H]3c4[nH]c5cc(OC)ccc5c4CCN3C[C@H]2C[C@@H](OC(=O)c2cc(OC)c(OC)c(OC)c2)[C@@H]1OC` the entry was “inactive”; with `Fc1ccc2nc(Nc3nc4c(s3)CCCC4)sc2c1`, “inactive”. On the same count and under the same terms, with `Cc1noc(/C=C/c2ccco2)c1S(=O)(=O)N1CCC(C(=O)N(C)Cc2ccccc2)CC1` the entry was “inactive”. Turning to `CCCOc1ccc(/C=c2\sc3nc(-c4ccco4)nn3c2=O)cc1OCC`, the inhibition of disassembly entry was “inactive”. Consider `Cc1noc(/C=C/c2ccco2)c1S(=O)(=O)N1CCC(C(=O)N2c3ccccc3CC2C)CC1` (stereo unspecified), for which the inhibition of disassembly entry was “inactive”.

Still in this assay, the particulars now being: GFP-proteasome beads, disassembly inhibition.
Take `CC(=O)N1C(=O)C(=C2C=C(C)OC(C)=C2)c2ccccc21`: the EC50 was 61.7 µM. As to `O=C(Nc1ccccc1)C1=C(O)CC(c2ccco2)CC1=Nc1ccccc1` (stereo unspecified), the EC50 is > 100 µM (inactive). Regarding `O=C(CN1C(=O)C2CCCN2c2ncc(Cl)cc21)NCc1ccc2c(c1)OCO2` (stereo unspecified), the EC50 entry is “inactive”. For `Cc1cccc(NC(=O)c2sc3nc(-c4ccc(F)cc4)cn3c2C)n1`, the EC50 was 25.9 µM. Same read-out and setting: to `COC(=O)c1ccc2c(c1)N(Cc1nc(-c3ccc(Cl)cc3)oc1C)C(=O)C1CCCN21` (stereo unspecified) belongs > 100 µM (inactive).
